Reference: PMC12844208, “Screening for Peptides to Bind and Functionally Inhibit SARS-CoV-2 Fusion Peptide Using Mirrored Combinatorial Phage Display and Human Proteomic Phage Display” (Molecules, 2026)
Entries after “also recorded” stand apart in the source; their conditions may differ. Ends that are not written are not given here.

Assays:
[1] = system: D-FP12_biotin (SARS-CoV-2 spike fusion peptide synthesised as a D-peptide); format: binding
[2] = system: anti-Borrelia burgdorferi immune sera; conditions: occurrences in the anti-Borrelia burgdorferi immune sera NEB PhD7 screening dataset; cited from earlier work
From the text: Table 2 Ten enriched PhD7-mer L-peptides tested in antiviral assays as D-peptides. | column: Occurrence in an Unrelated Screen

FP = test: Preliminary screen of FP versus a pan-coronaviral phage display library; set-up: species or system SARS-CoV-2; conditions: lack of binding to homologous regions of other coronaviruses placed the finding in doubt
Procedure: Proteomic phage display of peptide regions of proteins is also possible for viral as well as host proteins, and a preliminary screen of FP versus a pan-coronaviral phage display library of regions of coronaviral proteins was carried out following the methods previously outlined, which only identified a single peptide, despite a large amount of sequencing data obtained. This 39mer […] peptide was derived from the nsp3 (protease-encoding) protein of coronavirus 229E comprising the last four residues of the loop between Y2 and Y3 regions and the first 35 residues of the Y3 region. Y3 plays a role in double-membrane vesicle formation, but the lack of binding to homologous regions of other coronaviruses in the library placed the finding in doubt.

[3] = system: SARS-CoV-2 infection of Vero-E6/TMPRSS2 cells; test: microbe, parasite or virus in culture; format: cell-based

| Molecule | Read Count [1] | also measured |
| --- | --- | --- |
| SLTGTRF | 11,170 |  |
| HFARHLA | 7063 |  |
| HDTTLIT | 169,773 |  |
| WSRGYTG | 3676 |  |
| NTWPYKP | 264,257 | Occurrence in an Unrelated Screen [2]: 1 |
| LSTLSVDFNGVLHKAYIDVLRNSFGKDLNANMSLAECKR |  | peptide identified as binding FP in the pan-coronaviral library (FP): identified |
| CCC(CC)COC(=O)[C@H](C)N[P@](=O)(OC[C@H]1O[C@@](C#N)(c2ccc3c(N)ncnn23)[C@H](O)[C@@H]1O)Oc1ccccc1 [Remdesivir, reference compound] |  | inhibition of infection (in words) [3]: strongly inhibited; inhibition at 5 µM ([3]; Severe acute respiratory syndrome coronavirus 2, VeroE6/TMPRSS2, read-out: inhibition of infection): 95% |
| RDHYMMF | 7135 |  |
| ETSTMYP | 3552 | effect on SARS-CoV-2 infection (number of infected cells compared to vehicle controls) [3]: exception |
| WSLGYTG | 6,280,489 | Occurrence in an Unrelated Screen [2]: 4 |
| LEVYYET | 3570 |  |
| RRRRRRRRGPDRNFRLSEHRQALA-NH2 [OTUD1-derived peptide] |  | inhibition of SARS-CoV-2 infection of Vero-E6/TMPRSS2 cells (in words) [3]: no evidence for any marked impact; also recorded: failed to inhibit viral infection |
| LTSLPRN | 4284 |  |
